According to US20240358767A1, “STEM CELL DIFFERENTIATION AND CHEMICAL COMPOUNDS” (VERTEX PHARMACEUTICALS INCORPORATED, priority 2021, published 2024):
Values joined by “and” are separate entries in the source; they are usually repeats but may differ in a detail not shown here. Equal entries are not always repeated.

Experiments:
human stem cells [1] = assay: Stage 1 differentiation of stem cells (Version A protocol), flow cytometry of Oct4 and Sox17 at completion of Stage 1 (S1C); type: cell-based
Method: (§1) An exemplary base differentiation protocol, Version A, according to the present disclosure, was used for differentiating human stem cells into mature β cells capable of releasing insulin in response to glucose challenge in vitro.
(§2) Version A protocol is a 6-stage stepwise protocol. With Version A protocol, stem cells were treated with reagents in a manner similar to the Version A described in Example 1 of U.S. Patent Publication No. US20220090020A1, which is incorporated by reference herein in its entirety. In some experiments, Version A was modified such that 100 ng/mL Activin A at Stage 1 was replaced with a different concentration of Activin A as described below.
(§3) In one experiment, differentiation of the stem cells was initiated in spinner flasks using Version A protocol, and three different concentrations of Activin A (“AA”), 100 ng/mL (100%), 10 ng/mL (10%), and 5 ng/mL (5%), applied throughout the three days of Stage 1 were tested, while the remaining differentiation steps were kept the same. On QC days, e.g., upon completion of Stage 1 (“S1C”), completion of Stage 3 (“S3C”), or completion of Stage 5 (“S5C”), the cells were examined for their morphology and cell constituents. Specifically, 5 mL of cell cluster suspension solution were taken from the spinner flask, with 1 mL suspension aliquoted into a 24 well plate. Pictures of the cell clusters in the 24-well plate were taken under brightfield microscope. The cell clusters in the remaining 4 mL suspension were dispersed with TrypLE Express (Life Technologies; 12,604,013) at 37° C. for 20 min, fixed with 4% PFA for 20 mins at 4° C., blocked for 1 hour in FACS buffer (5% Donkey Serum and 0.05% Triton-100 in PBS) at room temperature, and stained with various antibodies against cell markers. Stained cells were then measured using an Accuri 6 flow cytometer (BD Biosciences) and analyzed using FlowJo software.
In another experiment, a dose-response test was conducted to examine the effects of different concentrations of Activin A at Stage 1 on stem cell differentiation. Five different concentrations of Activin A were tested: 100 ng/mL (100%), 20 ng/mL (20%), 10 ng/mL (10%), 5 ng/mL (5%), and 0 ng/mL (0%).
(§4) In one experiment, four different conditions for Stage 1 differentiation were tested: 100% Activin A, 10% Activin A, 10% Activin A plus GSK-690693 (“GSK”), or 10% Activin A plus BYL719 (“BYL”). Characterization of cell morphology and cell constituents were conducted similarly as described in EXAMPLE 1. The experiment was repeated for four times. Table 3 summarizes the quantification of flow cytometry analysis results at S1C, S3C, and S5C, and total viable cell yield at S5C for the four runs. In all the four runs, 0.1 μM […] or 0.04 μM BYL719 was applied for 3 days of Stage 1, except that in the last two runs, Run 4 and Run 5, 0.04 μM of BYL719 was applied for only 2 days (days S1d1 and S1d2).
(§5) In one experiment, six different conditions for Stage 1 differentiation were tested: 100% Activin A, 10% Activin A, 10% Activin A plus GSK-690693, 10% Activin A plus BYL719, 10% Activin A plus GSK-690693 and BYL719, or 100% Activin A plus GSK-690693 and BYL719. Characterization of cell morphology and cell constituents were conducted similarly as described in EXAMPLE 1. FIGS. 2A-5E and Table 4 summarize the characterizations of the cells obtained under the six differentiation conditions at different stages.

human stem cells [2] = assay: Version A differentiation, flow cytometry of Pdx1, Cdx2 and Sox2 at completion of Stage 3 (S3C); type: cell-based
Method: as §1, §2, §3, §4, §5

human stem cells [3] = assay: Version A differentiation, flow cytometry of Nkx6.1 and Isl1 at completion of Stage 5 (S5C); type: cell-based
Method: as §1, §2, §3, §4, §5

human stem cells [4] = assay: Total viable cell yield at S5C; type: cell-based; settings: 0.1 μM GSK for 3 days of Stage 1 plus 10% AA, Runs 4-5, listed as GSK
Method: as §1, §2, §4

human stem cells [5] = assay: Version A differentiation, flow cytometry of Nkx6.1 and Isl1 on day 7 of Stage 6 (S6d7); type: cell-based; settings: for Markers on S6d7 Isl1 + /Nkx6.1+ / Markers on S6d7 Isl1 + /Nkx6.1−: 10% AA plus the compound(s) at Stage 1
Method: as §1, §2, §3, §5
In another experiment, the effects of the aforementioned six different conditions for Stage 1 differentiation on Stage 6 differentiation were tested under two Stage 6 medium regimens: regimen 1 (Table 5) and regimen 2 (Table 6).

Stem cells = assay: 384-well screen of small molecule compounds for Stage 1 differentiation to Sox17-positive definitive endoderm cells (immunostaining, DAPI)
Method: In one experiment, more than 2100 small molecule compounds (“test compounds”) from a small molecule chemogenomic library were tested for their effects on Stage 1 differentiation from stem cells to Sox17-positive definitive endoderm cells. […] Each test compound was tested at about 8 different concentrations. The resulting cell population in each well was then examined by immunostaining and image analysis to determine the percentage of cells expressing Sox17 and/or Oct14 (via immunostaining of Sox17 and Oct 14), and total cell count (via DAPI staining). […] Quantification thresholds correspond to staining signal and were defined as low, normal, or high. Low indicates a low threshold was set for dectection of Sox17+ staining (i.e., easy to detect Sox17+) and high would be only highest expressing Sox17+ cells are detected.

[6] = 10% AA (10 ng/mL Activin A) plus the compound(s) at Stage 1
[7] = 0.1 μM GSK for 3 days of Stage 1 plus 10% AA (10 ng/mL Activin A), Runs 3-5, listed as GSK
[8] = 10 ng/mL AA plus test compound, about 8 concentrations, dose-responsive manner

nuclear blebbing in the resulting cell population (Stem cells; visual inspection): not to induce
SMILES: CCn1c(-c2nonc2N)nc2c(C#CC(C)(C)O)ncc(OC[C@H]3CCCNC3)c21 [GSK-690693]
S1C Sox17+/Oct4− (human stem cells [1]; 0.1 μM GSK for 3 days of Stage 1 plus 10% AA (10 ng/mL Activin A), Runs 2-5, listed as GSK): 69 and 84.9 and 91.6 and 60 | S1C Sox17 + /Oct4+ (human stem cells [1]; [6]): 2.86% | S1C Sox17+/Oct4− (human stem cells [1]; [6]): 91.6% | S3C Pdx1 (human stem cells [2]; [7]): 57.5 and 91.1 and 89.4 | S3C Pdx1 + /Cdx2+ (human stem cells [2]; [6]): 6.70% | S3C Pdx1 + /Sox2+ (human stem cells [2]; [6]): 37.3% | S5C Nkx6.1+/Isl1+ (human stem cells [3]; [7]): 31.1 and 35.6 and 28.5 | S5C Nkx6.1+/Isl1+ (human stem cells [3]; [6]): 28.5% | St5C yield (human stem cells [4]): 3.02e+06 mL⁻¹ and 5.4416e+06 mL⁻¹ | S6d7 Nkx6.1 + /Isl1+ (human stem cells [5]; 10% AA (10 ng/mL Activin A) plus the compound(s) at Stage 1, day 7 of Stage 6): 34.8% | Markers on S6d7 Isl1 + /Nkx6.1+ (human stem cells [5]; Stage 6 Regimen 1): 34.8 | Markers on S6d7 Isl1 + /Nkx6.1− (human stem cells [5]; Stage 6 Regimen 1): 8.17 | Markers on S6d7 Isl1 + /Nkx6.1+ (human stem cells [5]; Stage 6 Regimen 2): 36.3 | Markers on S6d7 Isl1 + /Nkx6.1− (human stem cells [5]; Stage 6 Regimen 2): 8.17 | signal in Oct 4 channel (Stem cells; [8]): decrease | signal in Sox17 channel (Stem cells; [8]): increase | Relative to 100 ng/mL AA (percentage of Sox17-positive cells normalized by the percentage with 100 ng/mL AA) (Stem cells; Stage 1 condition with 10 ng/mL AA and the test compound, 384-well plates): 119%
